Square brackets hold non-standard residues; d marks the D form. Ends that are not written are not given here. Peptide text beside a SMILES is read from it. * marks the point of attachment. hArg = N=C(N)NCCCC[C@H](N)C(=O)O; Nle = CCCC[C@H](N)C(=O)O; Orn = NCCC[C@H](N)C(=O)O; Bz = O=C(c1ccccc1)*
Key:
[1] = biological target: T1, cultured rat pituitary cells (Rattus norvegicus, UniProt P35353); assay: Block of ACTH and β-endorphin secretion by cultured rat pituitary cells by CRF antagonists (procedure of Example XLIII); type: cell-based; conditions: general procedure of Example XLIII
T1 sequence (P35353 24-415): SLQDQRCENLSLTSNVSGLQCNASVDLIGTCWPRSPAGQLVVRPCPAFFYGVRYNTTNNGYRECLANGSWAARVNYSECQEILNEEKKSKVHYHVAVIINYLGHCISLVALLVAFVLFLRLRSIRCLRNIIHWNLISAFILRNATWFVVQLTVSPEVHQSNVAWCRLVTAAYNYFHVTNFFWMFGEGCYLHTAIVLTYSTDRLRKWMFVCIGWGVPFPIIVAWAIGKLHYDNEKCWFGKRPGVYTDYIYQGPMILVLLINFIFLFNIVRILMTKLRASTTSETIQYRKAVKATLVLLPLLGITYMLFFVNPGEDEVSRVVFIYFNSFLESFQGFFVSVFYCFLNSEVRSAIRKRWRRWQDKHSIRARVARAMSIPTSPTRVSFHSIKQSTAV
Protocol: The effectiveness of synthetic CRF antagonists to block the secretion of ACTH and B-endorphin by cultured rat pituitary cells is measured using the procedure as generally set forth in Vale et al., Endocrinology, 91, 562 (1972). In vivo testing is carried out using the general procedure set forth in C. Rivier et al., Science, 218, 377 (1982).

[2] = biological target: T1, cultured rat pituitary cells; assay: Stimulation of ACTH and β-endorphin secretion by cultured rat pituitary cells (general procedure of Example III); type: cell-based; conditions: general procedure of Example III
Protocol: The synthetic peptide AHC and oCRF were examined for their effects on the secretion of ACTH and B-endorphin in vitro and was also in vivo. The potency of synthetic oCRF to stimulate the secretion of ACTH and β-endorphin by cultured rat pituitary cells was measured using the procedure as generally set forth in Endocrinology, 91, 562 (1972). […] In.vivo testing is carried out using the general procedure set forth in C. Rivier et al., Science, 218, 377 (1982).

[3] = Lowering of blood pressure, in vivo testing by the general procedure of Example III

H-DLTLELLREMLEMAKAEQEAEQAALNRLLLEEA-NH2 [[Leu^12, Glu^13]-AHC(9-41)]
secretion of ACTH and β-END-LI (antagonist test) [1]: inhibits

CCCC[C@H](N)C(=O)N[C@@H](CC(=O)O)C(=O)N[C@@H](CC(C)C)C(=O)N[C@@H](CO)C(=O)N[C@@H](Cc1ccccc1)C(=O)N[C@@H](Cc1c[nH]cn1)C(=O)N[C@@H](CC(C)C)C(=O)N[C@@H](CC(C)C)C(=O)N[C@@H](CCCNC(=N)N)C(=O)N[C@@H](CCC(=O)O)C(=O)N[C@H](C(=O)N[C@@H](CC(C)C)C(=O)N[C@@H](CCC(=O)O)C(=O)N[C@@H](CCSC)C(=O)N[C@@H](C)C(=O)N[C@@H](CCCNC(=N)N)C(=O)N[C@@H](C)C(=O)N[C@@H](CCC(=O)O)C(=O)N[C@@H](CCC(N)=O)C(=O)N[C@@H](CC(C)C)C(=O)N[C@@H](C)C(=O)N[C@@H](CCC(N)=O)C(=O)N[C@@H](CCC(N)=O)C(=O)N[C@@H](C)C(=O)N[C@@H](Cc1c[nH]cn1)C(=O)N[C@@H](CC(C)C)C(=O)N[C@@H](CC(N)=O)C(=O)N[C@@H](CCCNC(=N)N)C(=O)N[C@@H](CCCCN)C(=O)N[C@@H](CC(C)C)C(=O)N[C@@H](CCSC)C(=O)N[C@@H](CCC(=O)O)C(=O)N[C@H](C(=O)N[C@H](C(N)=O)[C@@H](C)CC)[C@@H](C)CC)C(C)C [[Nle^8, Ser^ll, Leu^33]-hCRF(8-41)] (H-[Nle]DLSFHLLREVLEMARAEQLAQQAHLNRKLMEII-NH2)
secretion of ACTH and β-END-LI (antagonist test) [1]: inhibits

H-LDLTFHLLREVLEMAKAEQLAQQAHSNRKLLEII-NH2 [[Lys^23, Leu^38]-hCRF(8-41)]
secretion of ACTH and β-END-LI (antagonist test) [1]: inhibits

H-LDLTLELLREMLEMEKAEKEAEQAALNRLLLEEA-NH2 [[G1u^13,22, Leu^l2, Lys^26]-AHC(8-41)]
secretion of ACTH and β-END-LI (antagonist test) [1]: inhibits

H-IDLTFHLLRNMIEMARNENQREQAGLNRKYLDEV-NH2 [Carp Urotensin 1(8-41)]
secretion of ACTH and β-END-LI (antagonist test) [1]: inhibits

H-DLSLELLRKMIEIEKQEKLKQQAANNRLLMDTI-NH2 [[Leu^26, Met^37]-sauvagine(8-40)]
secretion of ACTH and β-END-LI (antagonist test) [1]: inhibits

CCCC[C@H](NC(=O)[C@H](CCC(=O)O)NC(=O)[C@H](CC(C)C)NC(=O)[C@H](CCCC)NC(=O)[C@H](CCC(=O)O)NC(=O)[C@H](CCCNC(=N)N)NC(=O)[C@H](CC(C)C)NC(=O)[C@H](CC(C)C)NC(=O)[C@H](Cc1c[nH]cn1)NC(=O)[C@H](Cc1ccccc1)NC(=O)[C@@H](NC(=O)[C@@H](N)CC(C)C)[C@@H](C)O)C(=O)N[C@@H](C)C(=O)N[C@@H](CCCCN)C(=O)N[C@@H](C)C(=O)N[C@@H](CCC(=O)O)C(=O)N[C@@H](CCC(N)=O)C(=O)N[C@@H](CCC(=O)O)C(=O)N[C@@H](C)C(=O)N[C@@H](CCC(=O)O)C(=O)N[C@@H](CCC(N)=O)C(=O)N[C@@H](C)C(=O)N[C@@H](C)C(=O)N[C@@H](CC(C)C)C(=O)N[C@@H](CC(N)=O)C(=O)N[C@@H](CCCNC(=N)N)C(=O)N[C@@H](CC(C)C)C(=O)N[C@@H](CC(C)C)C(=O)N[C@@H](CC(C)C)C(=O)N[C@@H](CCC(=O)O)C(=O)N[C@@H](CCC(=O)O)C(=O)N[C@@H](C)C(N)=O [[Nle^18,21]-AHC(10-41)] (H-LTFHLLRE[Nle]LE[Nle]AKAEQEAEQAALNRLLLEEA-NH2)
secretion of ACTH and β-END-LI (antagonist test) [1]: inhibits

CCCC[C@H](NC(=O)[C@@H](NC(=O)[C@H](CC(C)C)NC(=O)[C@H](CC(=O)O)NC(=O)[C@H](CC(C)C)NC(=O)[C@H](CO)NC(=O)[C@@H](NC(=O)[C@@H]1CCCN1C(=O)[C@@H]1CCCN1C(=O)[C@H](CCC(=O)O)NC(=O)CNC(=O)c1ccccc1)[C@@H](C)CC)[C@@H](C)O)C(=O)N[C@@H](Cc1c[nH]cn1)C(=O)N[C@@H](CC(C)C)C(=O)N[C@@H](CC(C)C)C(=O)N[C@@H](CCCNC(=N)N)C(=O)N[C@@H](CCC(=O)O)C(=O)N[C@H](C(=O)N[C@@H](CC(C)C)C(=O)N[C@@H](CCC(=O)O)C(=O)N[C@@H](CCSC)C(=O)N[C@@H](C)C(=O)N[C@@H](CCCNC(=N)N)C(=O)N[C@@H](C)C(=O)N[C@@H](CCC(=O)O)C(=O)N[C@@H](CCC(N)=O)C(=O)N[C@@H](CC(C)C)C(=O)N[C@@H](C)C(=O)N[C@@H](CCC(=O)O)C(=O)N[C@@H](CCC(N)=O)C(=O)N[C@@H](C)C(=O)N[C@@H](Cc1c[nH]cn1)C(=O)N[C@@H](CO)C(=O)N[C@@H](CC(N)=O)C(=O)N[C@@H](CCCNC(=N)N)C(=O)N[C@@H](CCCNC(=N)N)C(=O)N[C@@H](CC(C)C)C(=O)N[C@@H](CCSC)C(=O)N[C@@H](CCC(=O)O)C(=O)N[C@H](C(=O)N[C@H](C(N)=O)[C@@H](C)CC)[C@@H](C)CC)C(C)C (Bz-GEPPISLDLT[Nle]HLLREVLEMARAEQLAEQAHSNRRLMEII-NH2)
secretion of ACTH and β-END-LI [2]: stimulates
lowering of blood pressure [3]: very significant lowering of blood pressure

H-SQEPPISLDLTFHLLREVLE[Nle]TKADQLAEQAHSNRKLLDIA-NH2 [[Nle^21,Glu^29]-oCRF]
secretion of ACTH and β-END-LI [2]: stimulates
lowering of blood pressure [3]: very significant lowering of blood pressure

H-PPISIDLSLELLRKMIEIAKQEKEKEQAANNRLLMDTI-NH2
secretion of ACTH and β-END-LI [2]: stimulates
lowering of blood pressure [3]: very significant lowering of blood pressure

H-SQEPPISLDLTFHLLRE[Nle]LE[Nle]AKAEQEAEQAALNRLLLEEA-NH2 [[Nle^18, ^21]-AHC]
secretion of ACTH and β-END-LI [2]: stimulates
lowering of blood pressure [3]: very significant lowering of blood pressure

H-SEEPPIS[Nle]DLSFHLLREVLEMARAEQLAQQAHLNRKLMEEI-NH2 [[Nle^8, Ser^11, Leu^33, Glu^40]-rCRF]
secretion of ACTH and β-END-LI [2]: stimulates
lowering of blood pressure [3]: very significant lowering of blood pressure

H-SQ[dY][dP]PISLDLTFHLLRE[Nle]LE[Nle]AKAEQEAEQAALNRLLLEEA-NH2 [[D-Tyr^3, D-Pro^4, Nle^18, ^21]-AHC]
secretion of ACTH and β-END-LI [2]: stimulates
lowering of blood pressure [3]: very significant lowering of blood pressure

H-SEEPPISLDLTFHLLREVLE[Nle]A[hArg]AEQLAQQAHLNRKLMEE[Nle]-NH2
secretion of ACTH and β-END-LI [2]: stimulates
lowering of blood pressure [3]: very significant lowering of blood pressure

CC[C@H](C)[C@H](NC(=O)[C@H](CC(=O)O)NC(=O)[C@H](CC(C)C)NC(=O)[C@H](CC(C)C)NC(=O)[C@H](CCCCN)NC(=O)[C@H](CCCNC(=N)N)NC(=O)[C@H](CC(N)=O)NC(=O)[C@H](CO)NC(=O)[C@H](Cc1c[nH]cn1)NC(=O)[C@H](C)NC(=O)[C@H](CCC(N)=O)NC(=O)[C@H](CCC(N)=O)NC(=O)[C@H](C)NC(=O)[C@H](CC(C)C)NC(=O)[C@H](CCC(N)=O)NC(=O)[C@H](CC(=O)O)NC(=O)[C@H](C)NC(=O)[C@H](CCCCN)NC(=O)[C@H](CC(=O)O)NC(=O)[C@H](CCSC)NC(=O)[C@H](CCC(=O)O)NC(=O)[C@H](CC(C)C)NC(=O)[C@@H](NC(=O)[C@H](CCC(=O)O)NC(=O)[C@H](CCCNC(=N)N)NC(=O)[C@H](CC(C)C)NC(=O)[C@H](CC(C)C)NC(=O)[C@H](Cc1c[nH]cn1)NC(=O)[C@H](Cc1ccccc1)NC(=O)[C@@H](NC(=O)[C@H](CC(C)C)NC(=O)[C@H](CC(=O)O)NC(=O)[C@H](CC(C)C)NC(=O)[C@H](CO)NC(=O)[C@@H](NC(=O)[C@H]1CCCN1)[C@@H](C)CC)[C@@H](C)O)C(C)C)C(=O)N[C@@H](C)C(N)=O [[D-Pro^4,Asp^22]-oCRF(4-41)] (H-[dP]ISLDLTFHLLREVLEMDKADQLAQQAHSNRKLLDIA-NH2)
secretion of ACTH and β-END-LI [2]: stimulates
lowering of blood pressure [3]: very significant lowering of blood pressure

SQEPPISLDLTFHLLREVLEMA[Orn]AEQLAEQAHSNRKLLEII-NH2 [[Gln^2, Orn^23, Glu^29, Leu^38]-rCRF]
secretion of ACTH and β-END-LI [2]: stimulates
lowering of blood pressure [3]: very significant lowering of blood pressure

Ac-PPISLDLTFHLLREVLEMARAEQLAEQAHSNRKYMEEI-NH2
secretion of ACTH and β-END-LI [2]: stimulates
lowering of blood pressure [3]: very significant lowering of blood pressure to a greater extent than rCRF

Ac-GEEPPISLDLTFHLLREVLEMARAEQLAQQAHLNRKLMEEI-NH2 [[Acetyl-Gly^1, Leu^33, Glu^40]-rCRF]
secretion of ACTH and β-END-LI [2]: stimulates
lowering of blood pressure [3]: very significant lowering of blood pressure
